Experimental data from patent US10670605B2, “Cysteine reactive probes and uses thereof” (The Scripps Research Institute, priority 2015, dated 2020).

Experiments:
Assay in all cases: Competitive isoTOP-ABPP in situ (fragment-treated cells)
Type in all cases: cell-based
[1] = biological target: T1, cysteines in MDA-MB-231 and Ramos cells (Homo sapiens, UniProt Q09161)
T1 sequence (Q09161 1-790): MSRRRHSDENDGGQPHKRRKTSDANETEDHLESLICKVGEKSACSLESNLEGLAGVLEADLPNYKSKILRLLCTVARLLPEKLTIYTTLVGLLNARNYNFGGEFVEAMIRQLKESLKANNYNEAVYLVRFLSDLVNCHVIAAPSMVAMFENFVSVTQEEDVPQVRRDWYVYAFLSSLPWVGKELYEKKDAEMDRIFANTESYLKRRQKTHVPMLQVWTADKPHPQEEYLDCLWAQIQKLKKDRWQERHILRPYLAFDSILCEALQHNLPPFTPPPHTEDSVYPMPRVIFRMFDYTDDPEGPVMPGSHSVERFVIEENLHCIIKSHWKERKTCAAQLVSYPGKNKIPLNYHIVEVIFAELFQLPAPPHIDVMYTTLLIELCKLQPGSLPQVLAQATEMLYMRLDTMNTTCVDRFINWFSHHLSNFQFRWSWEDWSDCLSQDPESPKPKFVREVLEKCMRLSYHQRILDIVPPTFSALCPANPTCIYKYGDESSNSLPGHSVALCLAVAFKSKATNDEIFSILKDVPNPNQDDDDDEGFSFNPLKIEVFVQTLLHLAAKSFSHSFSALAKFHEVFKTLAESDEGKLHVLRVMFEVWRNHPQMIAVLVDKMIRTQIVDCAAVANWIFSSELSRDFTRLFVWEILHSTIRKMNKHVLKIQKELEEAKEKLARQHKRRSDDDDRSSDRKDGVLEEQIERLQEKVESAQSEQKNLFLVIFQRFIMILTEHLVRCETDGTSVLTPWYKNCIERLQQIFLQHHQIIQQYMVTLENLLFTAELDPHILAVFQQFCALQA

[2] = biological target: T2, cysteines in MDA-MB-231 and Ramos cells (Homo sapiens, UniProt O75521)
T2 sequence (O75521 39-394): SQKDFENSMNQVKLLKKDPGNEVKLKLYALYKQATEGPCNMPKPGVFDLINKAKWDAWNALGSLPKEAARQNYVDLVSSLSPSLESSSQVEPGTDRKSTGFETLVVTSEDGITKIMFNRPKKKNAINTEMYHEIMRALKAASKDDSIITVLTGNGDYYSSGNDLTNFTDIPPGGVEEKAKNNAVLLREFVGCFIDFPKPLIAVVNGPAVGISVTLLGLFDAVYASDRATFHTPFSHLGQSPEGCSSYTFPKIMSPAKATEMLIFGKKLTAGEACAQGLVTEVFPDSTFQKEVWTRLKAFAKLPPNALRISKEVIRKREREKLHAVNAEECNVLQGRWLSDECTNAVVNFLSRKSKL

[3] = biological target: T3, cysteines in MDA-MB-231 and Ramos cells (Homo sapiens, UniProt Q9NQC3)
T3 sequence (Q9NQC3 1-1192): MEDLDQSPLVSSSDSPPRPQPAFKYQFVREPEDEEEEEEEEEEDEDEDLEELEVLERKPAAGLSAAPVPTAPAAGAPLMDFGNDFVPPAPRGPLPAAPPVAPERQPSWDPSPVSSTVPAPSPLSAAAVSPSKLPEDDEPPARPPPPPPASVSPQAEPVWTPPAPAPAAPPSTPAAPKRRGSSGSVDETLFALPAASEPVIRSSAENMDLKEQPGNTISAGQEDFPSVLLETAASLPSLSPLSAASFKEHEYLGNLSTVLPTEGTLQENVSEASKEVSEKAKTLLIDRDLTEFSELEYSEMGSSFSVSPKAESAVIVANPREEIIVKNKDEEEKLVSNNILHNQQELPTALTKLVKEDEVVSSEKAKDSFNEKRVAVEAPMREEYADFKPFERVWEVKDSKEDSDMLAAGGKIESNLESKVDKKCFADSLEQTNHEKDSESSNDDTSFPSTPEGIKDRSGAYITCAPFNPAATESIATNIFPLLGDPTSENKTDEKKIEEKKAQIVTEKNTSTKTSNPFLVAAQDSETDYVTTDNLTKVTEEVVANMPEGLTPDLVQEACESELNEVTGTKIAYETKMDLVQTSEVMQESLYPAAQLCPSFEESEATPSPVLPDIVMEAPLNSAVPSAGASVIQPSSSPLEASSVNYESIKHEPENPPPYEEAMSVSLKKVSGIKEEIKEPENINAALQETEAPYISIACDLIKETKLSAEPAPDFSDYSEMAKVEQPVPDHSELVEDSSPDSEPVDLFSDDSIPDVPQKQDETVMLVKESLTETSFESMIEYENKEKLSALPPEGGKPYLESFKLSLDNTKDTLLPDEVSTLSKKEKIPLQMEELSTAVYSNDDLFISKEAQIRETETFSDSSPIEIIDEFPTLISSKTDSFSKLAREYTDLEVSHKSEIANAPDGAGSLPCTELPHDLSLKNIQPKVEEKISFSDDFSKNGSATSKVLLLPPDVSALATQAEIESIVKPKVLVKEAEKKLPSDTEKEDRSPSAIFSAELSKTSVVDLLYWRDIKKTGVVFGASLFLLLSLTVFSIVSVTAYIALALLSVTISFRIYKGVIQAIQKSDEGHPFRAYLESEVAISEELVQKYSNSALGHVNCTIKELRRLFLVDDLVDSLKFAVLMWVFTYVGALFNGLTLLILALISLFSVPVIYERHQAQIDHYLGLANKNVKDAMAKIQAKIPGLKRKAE

[4] = biological target: T4, cysteines in MDA-MB-231 and Ramos cells (Homo sapiens, UniProt O95571)
T4 sequence (O95571 8-254): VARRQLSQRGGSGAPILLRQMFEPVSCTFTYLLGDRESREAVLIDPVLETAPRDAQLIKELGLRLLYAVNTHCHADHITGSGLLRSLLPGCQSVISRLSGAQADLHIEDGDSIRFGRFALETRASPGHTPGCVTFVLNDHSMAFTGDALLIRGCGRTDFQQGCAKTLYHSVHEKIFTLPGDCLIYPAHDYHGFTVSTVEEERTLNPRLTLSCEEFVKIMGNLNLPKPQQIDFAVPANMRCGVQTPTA

isoTOP-ABPP ratio Q09161_C44 ([1]; 200 μM, insitu, 231)	isoTOP-ABPP ratio O75521_C312 ([2]; 200 μM, insitu, 231)	isoTOP-ABPP ratio O75521_C380 ([2]; 200 μM, insitu, 231)	isoTOP-ABPP ratio Q9NQC3_C1101 ([3]; 200 μM, insitu, 231)	isoTOP-ABPP ratio O95571_C170 ([4]; 200 μM, insitu, 231)	Structure (SMILES)	also measured
1.0	0.7	1.0		1.2	O=C(CCl)NCCc1c[nH]c2ccccc12 [compound 13]	isoTOP-ABPP ratio O95571_C170 ([4]; 200 μM, insitu, ramos): 1.9
		0.8			COc1ccccc1OCCNC(=O)CCl [compound 28]	
2.5	0.7	1.2		3.1	CC1CCc2ccccc2N1C(=O)CCl (centres unmarked) [compound 45]	
1.2		1.0	1.2		O=C(CCl)Nc1cccc2ncccc12 [compound 51]	

Further lines, the compound ahead of its results:

Structure (SMILES)	isoTOP-ABPP ratio Q09161_C44 ([1]; 200 μM, insitu, 231)	isoTOP-ABPP ratio O75521_C312 ([2]; 200 μM, insitu, 231)	isoTOP-ABPP ratio O75521_C380 ([2]; 200 μM, insitu, 231)	isoTOP-ABPP ratio Q9NQC3_C1101 ([3]; 200 μM, insitu, 231)	isoTOP-ABPP ratio O95571_C170 ([4]; 200 μM, insitu, 231)	also measured
COc1ccc2c(c1)CCCN2C(=O)CCl [compound 2]						isoTOP-ABPP reactivity Q09161_C44 NCBP1 ([1]; 200 μM, insitu, 231): 2.1; isoTOP-ABPP reactivity O75521_C312 ECI2 ([2]; 200 μM, insitu, 231): 0.7; isoTOP-ABPP reactivity O75521_C380 ECI2 ([2]; 200 μM, insitu, 231): 0.6; isoTOP-ABPP reactivity Q9NQC3_C1101 RTN4 ([3]; 200 μM, insitu, 231): 12.0; isoTOP-ABPP reactivity O95571_C170 ETHE1 ([4]; 200 μM, insitu, 231): 3.8
COc1ccc(C2CC(c3cccs3)=NN2C(=O)CCl)cc1 (centres unmarked) [compound 4]						isoTOP-ABPP reactivity Q09161_C44 NCBP1 ([1]; 100 μM in situ 231): 1.8; isoTOP-ABPP reactivity O75521_C312 ECI2 ([2]; 100 μM in situ 231): 1.0; isoTOP-ABPP reactivity O75521_C380 ECI2 ([2]; 100 μM in situ 231): 1.6; isoTOP-ABPP reactivity Q9NQC3_C1101 RTN4 ([3]; 100 μM in situ 231): 20.0; isoTOP-ABPP reactivity O95571_C170 ETHE1 ([4]; 100 μM in situ 231): 2.3
COc1cc2c(cc1OC)CN(C(=O)CCl)CC2 [compound 8]						isoTOP-ABPP reactivity Q09161_C44 NCBP1 ([1]; 200 μM, insitu, 231): 2.0; isoTOP-ABPP reactivity O75521_C312 ECI2 ([2]; 200 μM, insitu, 231): 0.5; isoTOP-ABPP reactivity O75521_C380 ECI2 ([2]; 200 μM, insitu, 231): 0.8; isoTOP-ABPP reactivity O95571_C170 ETHE1 ([4]; 200 μM, insitu, 231): 6.8
O=C(CCl)N1CCC(Cc2ccccc2)CC1 [compound 9]						isoTOP-ABPP reactivity O75521_C312 ECI2 ([2]; 200 μM, insitu, 231): 0.5; isoTOP-ABPP reactivity O75521_C380 ECI2 ([2]; 200 μM, insitu, 231): 0.7; isoTOP-ABPP reactivity Q9NQC3_C1101 RTN4 ([3]; 200 μM, insitu, 231): 20.0; isoTOP-ABPP reactivity O95571_C170 ETHE1 ([4]; 200 μM, insitu, 231): 2.0
O=C(CCl)N1CCN(S(=O)(=O)c2ccccc2F)CC1 [compound 10]	12.4	5.0	4.8	20.0	9.0	
Cn1cc(S(=O)(=O)N2CCOCC2)cc1C(=O)NC(=O)CCl [compound 11]						isoTOP-ABPP ratio Q09161_C44 ([1]; 100 μM in situ 231): 1.1; isoTOP-ABPP ratio O75521_C380 ([2]; 100 μM in situ 231): 0.8; isoTOP-ABPP ratio Q9NQC3_C1101 ([3]; 100 μM in situ 231): 1.1; isoTOP-ABPP ratio O95571_C170 ([4]; 100 μM in situ 231): 1.2
O=C(CCl)NC(=O)NC12CC3CC(CC(C3)C1)C2 [compound 12]	4.7	4.2	1.9	20.0	6.3	
O=C(CCl)NC12CC3CC(CC(C3)C1)C2 [compound 21]	1.3	1.6	1.8	2.1	1.7	
CC(C)CCOCCNC(=O)CCl [compound 27]	0.8	1.1	1.6	1.4	1.1	
O=C(CCl)N1CCN(CC(=O)N2CCOCC2)CC1 [compound 29]						isoTOP-ABPP ratio Q09161_C44 ([1]; 200 μM, insitu, ramos): 1.1; isoTOP-ABPP ratio O75521_C380 ([2]; 200 μM, insitu, ramos): 1.2; isoTOP-ABPP ratio O95571_C170 ([4]; 200 μM, insitu, ramos): 1.5
C=CC(=O)N(Cc1cccnc1)c1cc(C(F)(F)F)cc(C(F)(F)F)c1 [compound 31]	0.6			12.8		
C=CC(=O)Nc1cc(F)c(N2CCN(C(=O)OC(C)(C)C)CC2)c(F)c1 [compound 38]	1.2	1.1	0.9	20.0		
Cc1ccc(C=C(C#N)C(=O)NCCN2CCOCC2)cc1 [compound 41]	0.8		1.1	1.0	1.1	
